Assays:
[1] = PK (MRT) of long-acting IL-15 receptor agonists (Table 2B); type: in vivo; settings: species not stated
[2] = Single dose PK study in rats (plasma concentration); type: in vivo; settings: Sprague Dawley rats, single i.v. 10, 75 and 150 μg/kg
Method: Following administration, blood was collected at days 1-7 post administration (with multiple samples collected over the first 24 hours following administration). […]

[3] = tested on: CD4, CD8, and NK cells; assay: In vivo IL-15 signaling (STAT5 phosphorylation in lymphocytes) in non-human primates; design: species or system cynomolgus monkeys; settings: NHP
Method: In the study, cynomolgus monkeys (cyno), one female and one male, were each intravenously administered a single dose of Conjugate 2 (0.5 mg/kg). A series of blood samples were taken from each animal both prior to treatment (day-6 and-1) and at multiple intervals following treatment for assessment by flow cytometry of STAT5 phosphorylation in various types of lymphocytes (CD4, CD8, and NK cells). Results are provided in FIGS. 9A (CD4), 9B (CD8), and 9C (NK).
(§1) Cynomolgus monkeys (n=3-4 males), were administered a single intravenous injection of Conjugate 1 at 0.003, 0.01, 0.1 mg/kg or a vehicle control. Blood samples were collected at the indicated time points pre and post dose (−5, −2, 1, 2, 3, 4, 5, 6, 7, 10, 14, 17 days) and subjected to flow cytometric analysis to examine pharmacodynamic effects within lymphocyte populations. Proliferation (% Ki-67) and JAK/STAT signaling (% pSTAT5) for NK cells, CD8 T cells, and CD4 T cells were examined, with the results shown in FIGS. 45A-C and FIGS. 46A-C, respectively.

[4] = tested on: NK cells, CD8 T cells, CD4 T cells; assay: In vivo PD study in non-human primates: lymphocyte cell numbers and proliferation; design: species or system cynomolgus monkeys
Method: In the study, cynomolgus monkeys, one female and one male, were administered 500 μg/kg of Conjugate 2 intravenously. A series of blood samples were taken from each animal before treatment (day-6 and -1) and at multiple intervals following single dose treatment for assessment by flow cytometry of lymphocyte cell numbers (NK cells, CD8 T-cells, etc.) and activation.
NK cell counts were determined to assess the ability of exemplary Conjugate 2 to induce sustained NK cell proliferation in non-human primates; results are shown in FIGS. 16A and 16B. NK cells and their proliferation in blood from cynomolgus monkey were identified by flow cytometry. Acquisition and analysis of NK cells (CD45+ CD3− CD16+) and their proliferation status (CD45+CD3−CD16+ Ki67+) were conducted using BD FACS DIVA software. Absolute values for NK cells and proliferating NK cells were used to calculate % Ki67 positivity within the NK population. Pre and post-treatment values were plotted using Prism.
CD8 T cell counts were also determined as illustrated in FIG. 17 for each animal from pre-dose to 14 days post-administration. Specifically, CD8 T cells were defined as CD45+CD3+CD4−CD8+. Blood from the monkeys was also subject to immunophenotyping as previously described. In monkey, CD8 T cells increased in a sustained manner, an effect lasting for at least 10 days. This plot further exemplifies the ability of an exemplary long acting IL-15 receptor agonist, Conjugate 2, to induce proliferation and sustained increases in numbers of CD8 T-cells post-administration.
In monkey, CD8 TEM cells were defined as CD45+CD3+CD4−CD8+CD45Ra−CD197− and CD8 Tcm were defined as CD45+CD3+CD4−CD8+CD45Ra−CD197+. Immunophenotyping was conducted by flow cytometry with sample acquisition on DIVA software and data analysis on Flowjo software. Graphs were plotted using Prism. […] The figures indicate that both CD8 effector and central memory T cell populations proliferate in response to exemplary Conjugate 2.
In this study, cynomolgus monkeys (cyno), one female and one male, were each intravenously administered a single dose of Conjugate 1 (0.1 mg/kg). A series of blood samples were taken from each animal over a 14-day time course and subjected to flow cytometry analysis of various lymphocytes (CD8 T cells, Ki-67 percent positivity within total CD8, CD8 central memory T cells (TCM) and CD8 effector memory T cells (Tem), NK cells and Ki-67 percent positivity of NK cells).
as §1
In cynomolgus monkey, CD8 naïve and memory subpopulations were defined by CD45Ra, CD197 and CD95. […] Within the CD8 Tem, […] and Tscm populations, Conjugate 1 induced robust % Ki-67 expression in a dose dependent manner with detectable increases in proliferation marker positivity starting as early as day 2, reaching a maximum at day 5 and returning to baseline between days 10-14. The Ki-67 expression and kinetics within the CD8 populations support the sustained increase in CD8 T cell numbers shown in Example 27 and FIGS. 47A-D.

[5] = tested on: YAC-1 cells; type: cell-based
Method: NK cell-mediated cytotoxicity against target tumor cells was evaluated in vitro using a flow cytometry-based assay. NK cells were isolated from spleens of Balb/c mice using negative-selection magnetic cell isolation (Mouse NK cell enrichment kit, Stemcell Technologies) and used as effector cells. For in vitro studies, isolated NK cells were stimulated with Conjugate 1 at concentrations of 3000, 1000, 300, 30, 3, or 0 (unstimulated) ng/ml overnight in a humidified incubator at 37° C., 5% CO2 prior to use in the cytotoxicity assay. For in vivo studies, mice were dosed with 0.3 mg/kg Conjugate 1, and splenic NK cells were isolated 24, 48, and 72 h post-dose and used directly in the cytotoxicity assay.
YAC-1 T-cells labeled with PKH26 were used as target cells. To monitor NK cell cytotoxicity, NK and YAC-1 cells were co-cultured at various effector: target ratios (50:1, 25:1, and 12.5:1) for 4 hours at 37° C., 5% CO2, then stained with 7-AAD for 10 min to label dead cells. Cells were immediately analyzed using flow cytometry. Lysed target cells were identified as PKH26+7-AAD+.
Balb/c mice (n=2/group) were treated with Conjugate 1 (0.006, 0.03 or 0.3 mg/kg), IL-15 (1 mg/kg) or vehicle control. After treatment, spleens were isolated 24, 72, and 96 hours for NK cell isolation. […]

[6] = cynomolgus monkey, each dose level, vs vehicle

**Q.** Which “PK (MRT)” value [1] does the source give for mono-mPEG-SBA40K-IL-15 [Conjugate 1] here?
**A.** Its value is 21 h.

**Q.** What about the half-life [2] of the same substance?
**A.** The half-life was “approximately 18 hours”.

**Q.** What about the “pSTAT5 in CD8 T cells” value ([3]; 0.1 and 0.01 mg/kg) of the same substance?
**A.** Its value is “dose-dependent increase in pSTAT5”.

**Q.** What about the “dose level at which increase in % pSTAT5 in NK cells can be detected” value ([3]; single i.v.) of the same substance?
**A.** The value was 0.001 mg/kg.

**Q.** And the “time NK cell numbers were sustained” value ([4]; NHP, 0.1 and 0.01 mg/kg)?
**A.** Its value is “up to 14 days”.

**Q.** And the “CD4 T cell numbers, % Ki-67 and % pSTAT5” value ([4]; NHP, highest dose level 0.1 mg/kg)?
**A.** Its value is “induced a small increase in CD4 T cell numbers, % Ki-67 and % pSTAT5”.

**Q.** And the “day of maximal total CD8 T cell numbers” value ([4]; NHP, single i.v.)?
**A.** Its value is roughly 5 days.

**Q.** And the “dose at which % Ki-67 positivity in CD8 T cells is detectable” value ([4]; NHP, single i.v.)?
**A.** The value was 10 µg/kg.

**Q.** And the “dose at which effect on total CD8 cell numbers can be detected” value ([4]; NHP, single i.v.)?
**A.** The value was 3 µg/kg.

**Q.** And the “dose level at which a significant increase in % Ki-67 in NK cells can be detected” value ([4]; NHP, single i.v.)?
**A.** Its value is 1 µg/kg.

**Q.** What about the “first detectable increase in % Ki-67 in CD8 Tem, Tcm and Tscm” value ([4]; NHP, single i.v.) of the same substance?
**A.** Its value is 2 days.

**Q.** What about the “lowest dose level yielding a significant increase in NK cells” value ([4]; NHP, single i.v.) of the same substance?
**A.** The value was 10 µg/kg.

**Q.** What about the “maximum of % Ki-67 in CD8 Tem, Tcm and Tscm” value ([4]; NHP, single i.v.) of the same substance?
**A.** The value was 5 days.

**Q.** And the “return of % Ki-67 in CD8 Tem, Tcm and Tscm to baseline” value ([4]; NHP, single i.v.)?
**A.** Its value is 10 to 14 days.

**Q.** And the “time Ki-67 expression in NK cells can be sustained” value ([4]; NHP, single i.v.)?
**A.** Its value is “up to 14 days”.

**Q.** What about the “time increase in total CD8 T cells is sustained” value ([4]; NHP, single i.v.) of the same substance?
**A.** Its value is “over seven”.

**Q.** And the “time of maximum NK cell numbers after dosing” value ([4]; NHP, single i.v.)?
**A.** The value was “five”.

**Q.** And the “increase in CD8 T cell numbers” value ([4]; cyno, single i.v. 0.1 mg/kg)?
**A.** Its value is 7-10 X.

**Q.** What about the “increase in CD8 Tcm numbers” value ([4]; cyno, single i.v. 0.1 mg/kg) of the same substance?
**A.** Its value is 27-30 X.

**Q.** And the “increase in CD8 Tem numbers” value ([4]; cyno, single i.v. 0.1 mg/kg)?
**A.** Its value is 21-33 X.

**Q.** And the “increase in NK cells” value ([4]; cyno, single i.v. 0.1 mg/kg)?
**A.** The value was 9-10 X.

**Q.** What about the “time increase in CD8 T cell numbers was sustained” value [4, 6] of the same substance?
**A.** Its value is “at least 10 days”.

**Q.** And the “time increase in NK cell numbers was sustained” value [4, 6]?
**A.** Its value is “at least 14 days”.

**Q.** What about the “NK cytotoxicity (percent specific lysis of YAC-1 cells) after treatment of mice” value [5] of the same substance?
**A.** Its value is “elevation of NK cytotoxicity superior in magnitude and duration”.
